Assay results published in PMC12751012, “Nanoscale Direct-to-Biology Optimization and Structural Insights into Selective S. aureus TrmD Inhibitors” (Journal of Medicinal Chemistry, 2025).

Target: T1, S. aureus TrmD (Staphylococcus aureus, UniProt Q2FZ43)
T1 construct: made in house; host or cells: E. coli BL21
T1 sequence (Q2FZ43 1-245): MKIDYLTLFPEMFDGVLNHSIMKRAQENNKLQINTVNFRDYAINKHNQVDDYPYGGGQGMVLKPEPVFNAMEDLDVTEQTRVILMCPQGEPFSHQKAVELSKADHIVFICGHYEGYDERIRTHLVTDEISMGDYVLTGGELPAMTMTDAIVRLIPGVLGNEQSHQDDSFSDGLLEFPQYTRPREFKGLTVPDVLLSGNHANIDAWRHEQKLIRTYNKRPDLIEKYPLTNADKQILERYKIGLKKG
Assay: nanoSAR direct-to-biology FP displacement screening of crude triazoles
Format: binding
Details: crude triazole at 1 μM, assuming full conversion; 500 nM TrmD, 10 nM tracer 4; read-out: % displaced tracer
From the text: Next, we conducted an S. aureus TrmD-targeting nanoSAR study. For this, alkyne 7 was reacted on a 96 nmol scale with an in-house diversity-oriented azide library (N = 320, mean pairwise Tanimoto similarity = 0.11) designed to cover a large chemical fragment space, generating a panel of 320 crude triazoles ready for FP assay investigation. The composition of the azide library is designed to be chemically diverse in several categories, including physicochemical properties such as polar surface area, lipophilicity, and the number of hydrogen bond donors and acceptors, as well as structural features like the number of aromatic rings (Figure S23). A complete list of chemical structures included in the azide library can be found in Table S4. In situ reaction conditions for CuAAC were adapted from Gehrtz et al., utilizing CuSO4, which is reduced in situ to Cu(I) by sodium ascorbate and stabilized by TBTA. Degassed water and DMSO (1:1) were used as solvents to prevent the oxidation from Cu(I) to Cu(II). For the synthesis of the triazole library, a master mix was prepared, containing all reaction components except the azides. All reactions were started by the addition of the respective azide in 24 μL at a final product concentration of 4 mM (96 nmol). Reaction mixtures were incubated for 16 h at room temperature and under an argon atmosphere in sealed 96-well plates.
For FP assay screening, we used 500 nM of S. aureus TrmD and 10 nM of tracer 4 in a total volume of 40 μL in 96-well plates. We performed control measurements and defined 10 nM of tracer 4 in buffer as 100% displacement and the DMSO control as 0% tracer displacement. […] The results of the FP screening were visualized in a waterfall plot and plate-based heatmaps (Figure , Figure S3).
Fluorescence polarization (FP) assays were performed as follows. The assays for H. influenzae TrmD have been described previously. All assays were conducted in technical triplicate using black 96-well half area plates. For the FP assays, a tracer (20 nM Cy5TPD for E. coli and H. influenzae TrmD, 10 nM tracer 4 for S. aureus TrmD) was mixed with the respective enzyme (2 μM E. coli TrmD, 2 μM H. influenzae TrmD, 500 nM S. aureus TrmD) in buffer (E. coli and H. influenzae TrmD: 50 mM HEPES, 500 mM NaCl, 5% Glycerol, pH 7.5, S. aureus TrmD: 40 mM Tris HCl, 100 mM NaCl, 10 mM MgCl2, 5% Glycerol, pH 7.5). The compounds were added in varying concentrations for K D-value determination. […] The Z-factor for tracer 4 was determined by measuring 48 replicates of the free tracer (positive controls, PC) and 48 replicates of a mixture of enzyme and tracer (negative controls, NC). The Z-factor is defined in terms of the means (μ) and standard deviations (σ) of the positive and negative controls and calculated as Z = 1–(3*(σnc + σpc)/(μnc–μpc)). […] Polarization values (mP) were determined from polarization-specific parallel and orthogonal fluorescence intensities. K D-values were calculated in GraphPad Prism 8.0.1 using the four-parameter Hill equation: y(% tracer bound) = bottom + ([ligand]-slope) × (top–bottom)/([ligand]-slope + K Dslope).
A commercial azide diversity library (Enamine) containing 320 azides at a concentration of 100 mM in DMSO in a 96-well tube rack was employed for this nanoSAR study. For the reaction of the azides with alkyne 7 via CuAAC, a master mix was prepared. […] The solvents were degassed with argon to avoid oxidation of the copper(I) during the reaction. To each well of a 96-well PCR plate (Applied Biosystems MicroAmp) were added 23 μL of the master mix and 1 μL of the 100 mM azide stock. The final concentrations in the Mastermix were: 8.7 mM sodium ascorbate (8.3 mM in reaction well), 1.1 mM TBTA (1.0 mM in reaction well), 4.3 mM 7 (4.1 mM in reaction well), 1.3 mM CuSO4×5 H2O (1.2 mM in reaction well).

Row | SMILES | inhibition at 1 µM [%]
1 | N#Cc1ccc(Cn2cc(-c3c[nH]c4nc[nH]c(=O)c34)nn2)c(F)c1 [Compound 01A01, Fc1c(ccc(C#N)c1)CN2N=NC(C=3C=4C(=O)NC=NC4NC3)=C2] | 12
2 | O=c1[nH]cnc2[nH]cc(-c3cn(Cc4cnn(-c5ccccc5)c4)nn3)c12 [Compound 01A02, O=C1NC=NC=2NC=C(C=3N=NN(C3)CC=4C=NN(c5ccccc5)C4)C12] | 81
3 | O=c1[nH]cnc2[nH]cc(-c3cn(Cc4cccnn4)nn3)c12 [Compound 01A03, O=C1NC=NC=2NC=C(C=3N=NN(C3)Cc4nnccc4)C12] | 65
4 | O=c1[nH]cnc2[nH]cc(-c3cn(CCN4CCCC4)nn3)c12 [Compound 01A04, O=C1NC=NC=2NC=C(C=3N=NN(C3)CC[NH+]4CCCC4)C12] | 22
5 | CC(C)n1cc(-c2c[nH]c3nc[nH]c(=O)c23)nn1 [Compound 01A05, O=C1NC=NC=2NC=C(C=3N=NN(C3)C(C)C)C12] | 23
6 | O=c1[nH]cnc2[nH]cc(-c3cn(C[C@H]4CCC[C@@]5(CCOC5)O4)nn3)c12 [Compound 01A06, O=C1NC=NC=2NC=C(C=3N=NN(C3)C[C@@H]4O[C@@]5(COCC5)CCC4)C12] | 52
7 | O=c1[nH]cnc2[nH]cc(-c3cn(Cc4cc(C5CC5)no4)nn3)c12 [Compound 01A07, O=C1NC=NC=2NC=C(C=3N=NN(C3)CC=4ON=C(C4)C5CC5)C12] | 77
8 | O=c1[nH]cnc2[nH]cc(-c3cn([C@@H]4C[C@H]5CCC[C@@H](C4)N5)nn3)c12 [Compound 01A08, O=C1NC=NC=2NC=C(C=3N=NN(C3)[C@@H]4C[C@@H]5[NH2+][C@H](C4)CCC5)C12] | 38
9 | CC(C)CCn1cc(-c2c[nH]c3nc[nH]c(=O)c23)nn1 [Compound 01A09, O=C1NC=NC=2NC=C(C=3N=NN(C3)CCC(C)C)C12] | 26
10 | O=C(Cn1cc(-c2c[nH]c3nc[nH]c(=O)c23)nn1)Nc1ccccc1 [Compound 01A10, O=C1NC=NC=2NC=C(C=3N=NN(C3)CC(=O)Nc4ccccc4)C12] | 41
11 | O=c1[nH]cnc2[nH]cc(-c3cn(C[C@@H]4CC(F)(F)CO4)nn3)c12 [Compound 01A11, F[C@]1(F)CO[C@H](CN2N=NC(C=3C=4C(=O)NC=NC4NC3)=C2)C1] | 44
12 | COc1cccc(C2(n3cc(-c4c[nH]c5nc[nH]c(=O)c45)nn3)CCC2)c1 [Compound 01A12, O=C1NC=NC=2NC=C(C=3N=NN(C3)C4(c5cc(OC)ccc5)CCC4)C12] | 10
13 | O=c1[nH]cnc2[nH]cc(-c3cn([C@H]4CCCNC4)nn3)c12 [Compound 01B01, O=C1NC=NC=2NC=C(C=3N=NN(C3)[C@@H]4C[NH2+]CCC4)C12] | 29
14 | Cc1ccc2nc(Cn3cc(-c4c[nH]c5nc[nH]c(=O)c45)nn3)cn2c1 [Compound 01B02, O=C1NC=NC=2NC=C(C=3N=NN(C3)CC=4N=C5N(C4)C=C(C=C5)C)C12] | 57
15 | O=c1[nH]cnc2[nH]cc(-c3cn(-c4ccc5c(c4)CCO5)nn3)c12 [Compound 01B03, O=C1NC=NC=2NC=C(C=3N=NN(c4cc5c(OCC5)cc4)C3)C12] | 52
16 | Cc1ccc2c(c1)[C@H](n1cc(-c3c[nH]c4nc[nH]c(=O)c34)nn1)CCC2 [Compound 01B04, O=C1NC=NC=2NC=C(C=3N=NN(C3)[C@H]4c5c(ccc(c5)C)CCC4)C12] | 27
17 | O=c1[nH]cnc2[nH]cc(-c3cn(C4CC4)nn3)c12 [Compound 01B05, O=C1NC=NC=2NC=C(C=3N=NN(C3)C4CC4)C12] | 12
18 | O=c1[nH]cnc2[nH]cc(-c3cn(CC4CNC4)nn3)c12 [Compound 01B06, O=C1NC=NC=2NC=C(C=3N=NN(C3)CC4C[NH2+]C4)C12] | 62

Row | SMILES | inhibition at 1 µM [%]
19 | O=c1[nH]cnc2[nH]cc(-c3cn([C@@H]4CCOC5(CCNCC5)C4)nn3)c12 [Compound 01B07, O=C1NC=NC=2NC=C(C=3N=NN(C3)[C@H]4CC5(OCC4)CC[NH2+]CC5)C12] | 34
20 | O=c1[nH]cnc2[nH]cc(-c3cn(Cc4nc5ccccc5[nH]4)nn3)c12 [Compound 01B08, O=C1NC=NC=2NC=C(C=3N=NN(C3)CC4=Nc5c(N4)cccc5)C12] | 43
21 | O=c1[nH]cnc2[nH]cc(-c3cn(CCCCF)nn3)c12 [Compound 01B09, FCCCCN1N=NC(C=2C=3C(=O)NC=NC3NC2)=C1] | 19
22 | O=c1[nH]cnc2[nH]cc(-c3cn(CC4CCCCC4)nn3)c12 [Compound 01B10, O=C1NC=NC=2NC=C(C=3N=NN(C3)CC4CCCCC4)C12] | 33
23 | O=c1[nH]cnc2[nH]cc(-c3cn(-c4ccc(OC(F)(F)F)c(Cl)c4)nn3)c12 [Compound 01B11, Clc1c(OC(F)(F)F)ccc(N2N=NC(C=3C=4C(=O)NC=NC4NC3)=C2)c1] | 16
24 | CCOCCn1cc(-c2c[nH]c3nc[nH]c(=O)c23)nn1 [Compound 01B12, O=C1NC=NC=2NC=C(C=3N=NN(C3)CCOCC)C12] | 21
25 | C[C@@H](c1cnnn1C)n1cc(-c2c[nH]c3nc[nH]c(=O)c23)nn1 [Compound 01C01, O=C1NC=NC=2NC=C(C=3N=NN(C3)[C@H](C=4N(N=NC4)C)C)C12] | 33
26 | Cc1nnc(Cn2cc(-c3c[nH]c4nc[nH]c(=O)c34)nn2)o1 [Compound 01C02, O=C1NC=NC=2NC=C(C=3N=NN(C3)CC=4OC(=NN4)C)C12] | 27
27 | O=c1[nH]cnc2[nH]cc(-c3cn([C@@H]4CCc5cc(Cl)ccc54)nn3)c12 [Compound 01C03, Clc1cc2c(cc1)[C@H](N3N=NC(C=4C=5C(=O)NC=NC5NC4)=C3)CC2] | 72
28 | O=c1[nH]cnc2[nH]cc(-c3cn(Cc4noc5c4CCC5)nn3)c12 [Compound 01C04, O=C1NC=NC=2NC=C(C=3N=NN(C3)CC4=NOC5=C4CCC5)C12] | 41
29 | O=c1[nH]cnc2[nH]cc(-c3cn(CCF)nn3)c12 [Compound 01C05, FCCN1N=NC(C=2C=3C(=O)NC=NC3NC2)=C1] | 22
30 | O=c1[nH]cnc2[nH]cc(-c3cn(C[C@H]4CCCO4)nn3)c12 [Compound 01C06, O=C1NC=NC=2NC=C(C=3N=NN(C3)C[C@@H]4OCCC4)C12] | 24
31 | COCc1cccc(-n2cc(-c3c[nH]c4nc[nH]c(=O)c34)nn2)c1 [Compound 01C07, O=C1NC=NC=2NC=C(C=3N=NN(c4cc(ccc4)COC)C3)C12] | 17
32 | O=c1[nH]cnc2[nH]cc(-c3cn(CCCOC4CCC4)nn3)c12 [Compound 01C08, O=C1NC=NC=2NC=C(C=3N=NN(C3)CCCOC4CCC4)C12] | 27
33 | O=c1[nH]cnc2[nH]cc(-c3cn(Cc4ncon4)nn3)c12 [Compound 01C09, O=C1NC=NC=2NC=C(C=3N=NN(C3)CC4=NOC=N4)C12] | 31
34 | CCN(CC)C(=O)Cn1cc(-c2c[nH]c3nc[nH]c(=O)c23)nn1 [Compound 01C10, O=C1NC=NC=2NC=C(C=3N=NN(C3)CC(=O)N(CC)CC)C12] | 25
35 | O=c1[nH]cnc2[nH]cc(-c3cn(CCn4ccccc4=O)nn3)c12 [Compound 01C11, O=C1N(C=CC=C1)CCN2N=NC(C=3C=4C(=O)NC=NC4NC3)=C2] | 52
